{"source": "patent US20240382506A1", "about": "“Means and Methods to Regulate Gut Dysbiosis” (VIB VZW, priority 2021, published 2024)", "key": {"Salmonella [1]": {"tested_on": "Salmonella", "assay": "Salmonella growth in CT26 cell supernatants", "type": "cell-based, Salmonella enterica serovar Typhimurium", "method": "(§1) All mammalian cells were cultured at 5×10^5 cells per ml. Cells were washed with 1× PBS before induction of cell death in the indicated medium. Jurkat cells were cultured in suspension at 5×10^5 cells/ml. After induction of cell death, supernatant was collected and spun at 330 rcf for 5 minutes to remove cellular debris. Unless stated otherwise, the resulting supernatant was filtered using a 0.2 μm syringe filter and either used immediately or frozen at −20° C. for later use. Cells were stained with Annexin V (AV) conjugated to APC or Pac Blue and either Sytox blue, Yoyo-1, or 7AAD (DNA binding dyes) for 15 minutes at room temperature in Annexin V binding buffer (BD). Flow cytometry was performed using the Attune NxT (Invitrogen), the FACS Calibur (BD), the LSR Fortessa (BD), or the LSRII (BD). Data were analyzed using FlowJo v.10 software. All independent experiment values shown are the average values of technical duplicates. ‘% Annexin V^+’ cells include Annexin V^+DNA dye^− and Annexin V^+DNA dye^+ cell populations.\nFADD-dependent apoptosis: CT26:FADD clones were incubated with 1 μg/ml doxycycline for 16 hours to induce expression of the construct. Doxycycline was washed away before addition of 10 nM B/B Homodimerizer for 5 hours to induce death. For Caspase inhibition studies, cells were incubated with 30 μM QVD for 1 hour prior to B/B administration and QVD was maintained in the media. […]\nOD600 measurements: 4 ml of supernatant or media controls were inoculated with 1-2×10^7 CFU/ml of the indicated bacterial species. Cultures were grown at 37° C. with 200 rpm agitation (aerobic) and bacterial growth was quantified by OD600 measurements using the Ultrospec 10 (VWR) at the indicated time points. […]\n(§2) CFU/ml values: 500 μl of supernatant or media controls were inoculated with 1×10^3 CFU of the indicated strain. Cultures were grown at 37° C. with 200 rpm agitation (aerobic) and growth was assessed at the indicated time by serially diluting with 1× PBS and plating onto LB agar (in vitro supernatants) or MacConkey agar (ex vivo primary colonocyte supernatants) to obtain CFU/ml values."}, "[2]": {"biological_target": "membrane pannexin-1 channels (Homo sapiens, UniProt Q96RD7)", "sequence (Q96RD7 whole entry)": "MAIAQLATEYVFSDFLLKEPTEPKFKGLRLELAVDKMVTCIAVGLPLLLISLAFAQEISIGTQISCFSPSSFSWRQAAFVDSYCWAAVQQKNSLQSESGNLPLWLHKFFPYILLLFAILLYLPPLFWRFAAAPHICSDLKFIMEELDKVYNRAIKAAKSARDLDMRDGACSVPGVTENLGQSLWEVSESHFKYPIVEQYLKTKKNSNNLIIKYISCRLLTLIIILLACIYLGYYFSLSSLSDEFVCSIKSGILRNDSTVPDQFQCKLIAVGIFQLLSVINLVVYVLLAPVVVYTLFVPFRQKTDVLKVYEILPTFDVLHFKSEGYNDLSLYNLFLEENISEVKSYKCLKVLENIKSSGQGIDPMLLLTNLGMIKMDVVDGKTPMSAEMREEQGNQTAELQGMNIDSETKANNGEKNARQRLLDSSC", "conditions": "described in literature; cited from earlier work"}, "Salmonella [3]": {"tested_on": "Salmonella", "type": "cell-based, Salmonella enterica serovar Typhimurium", "method": "Full length colons (from cecum to rectum) were excised from the indicated genotype of mice and cut open longitudinally to flay the colon open. Opened colons were vortexed 2-3 times in sterile 1× PBS to remove fecal content. Colons were then cut horizontally into 5-7 mm long pieces and incubated in DMEM +10% FBS and an antibiotic cocktail containing Ampicillin (100 μg/ml), Chloramphenicol (20 μg/ml), Kanamycin (50 μg/ml), and Streptomycin (100 μg/ml) for 2 hours at 37° C. with 5% CO2. Colonic pieces were then washed 3 times in sterile 1× PBS to remove any traces of the antibiotic cocktail. Individual colonic pieces were then incubated in 1.5 ml Eppendorf tubes containing 500 μl of DMEM+10% FBS+/−2 μM Stauro for 8 hours or +/−20 μg/ml Doxorubicin for 6 hours. For caspase inhibition, 30 μM QVD was added to the 2-hour antibiotic treatment step and was maintained throughout death induction. After death induction, colonic explants were spun at max speed for 5 minutes using a tabletop centrifuge and supernatant was collected. Unfiltered supernatant was used immediately or frozen −20° C. for subsequent use. […] All subsequent experiments (cell death, bacterial growth) utilized explants extracted from a minimum of 3 mice.\nas §2"}, "CT26:FADD cells": {"tested_on": "CT26:FADD cells", "assay": "CT26:FADD cell death (flow cytometry)", "type": "cell-based, murine", "method": "as §1\nFADD-dependent apoptosis: CT26:FADD clones were incubated with 1 μg/ml doxycycline for 16 hours to induce expression of the construct. Doxycycline was washed away before addition of 10 nM B/B Homodimerizer for 5 hours to induce death. […]"}, "Enterobacteriaceae": {"tested_on": "Enterobacteriaceae", "assay": "Bacterial growth in media with or without Doxo", "type": "cell-based, Salmonella and E. coli (strain HS)", "conditions": "9 hours aerobic growth in media with or without Doxo", "method": "as §2"}, "Salmonella [4]": {"tested_on": "Salmonella", "assay": "Salmonella infection after doxorubicin treatment in mice", "type": "in vivo, Salmonella enterica serovar Typhimurium", "conditions": "day 1 post-infection", "procedure": "Salmonella-induced colitis. Littermate, sex, and age-matched mice were infected using the Salmonella model of colitis^34. Specific pathogen free (SPF) mice were given a single dose of 20 mg streptomycin via oral gavage (100 μl of 200 mg/ml streptomycin dissolved in water) one day prior to infection. Mice were infected with 1×10^7 CFU per mouse resuspended in 1× PBS via oral gavage. For competitive infections, polar deletions containing the chromosomally inserted kanamycin resistance gene were used^56. Mice were infected with 1×10^7 CFU per strain per mouse, for a 2×10^7 CFU per mouse total inoculum in 100 μl. […] The input ratio of each strain was calculated by plating the infective dose on agar plates containing streptomycin (total inoculum) and agar plates containing streptomycin plus kanamycin (mutant strain). WT Salmonella was thus calculated as (total inoculum)−(mutant inoculum) and input ratio was calculated as (WT Salmonella)/(mutant Salmonella inoculum) with a desired input equal to 1. Mouse body weight was measured daily and ‘% body weight’ was calculated as (daily weight)/(day 0 starting weight). […] CFU per gram of tissue were calculated by plating serial dilutions of tissue homogenates on MacConkey agar containing streptomycin and MacConkey agar containing streptomycin and kanamycin. […]"}, "C57BL/6 colonic explants": {"tested_on": "C57BL/6 colonic explants", "assay": "Caspase-3 activation in colonic explants (colorimetric assay)", "type": "cell-based, mouse", "conditions": "20 μg/ml Doxo, 6 hours ex vivo", "method": "Full length colons (from cecum to rectum) were excised from the indicated genotype of mice and cut open longitudinally to flay the colon open. Opened colons were vortexed 2-3 times in sterile 1× PBS to remove fecal content. Colons were then cut horizontally into 5-7 mm long pieces and incubated in DMEM +10% FBS and an antibiotic cocktail containing Ampicillin (100 μg/ml), Chloramphenicol (20 μg/ml), Kanamycin (50 μg/ml), and Streptomycin (100 μg/ml) for 2 hours at 37° C. with 5% CO2. Colonic pieces were then washed 3 times in sterile 1× PBS to remove any traces of the antibiotic cocktail. Individual colonic pieces were then incubated in 1.5 ml Eppendorf tubes containing 500 μl of DMEM+10% FBS+/−2 μM Stauro for 8 hours or +/−20 μg/ml Doxorubicin for 6 hours. For caspase inhibition, 30 μM QVD was added to the 2-hour antibiotic treatment step and was maintained throughout death induction. […]\nCaspase-3 activation: Following removal of the supernatant, explant pieces were assessed for caspase-3 activity via the Caspase-3 Colorimetric Activity Assay Kit, DEVD (Sigma) according to the manufacturer's instructions. Colorimetric values were obtained at 405 nm using the iMark™ microplate reader (BioRad) and arbitrary units were calculated from a standard curve using the provided pNA standard."}, "[5]": {"tested_on": "endogenous Enterobacteriaceae", "assay": "Endogenous Enterobacteriaceae burden in uninfected doxorubicin-treated mice", "type": "in vivo", "conditions": "uninfected C57BL/6 mice, 2 days post-treatment", "method": "(§3) Doxorubicin treatment. Doxorubicin was given as a single intraperitoneal (ip) injection at 15 mg/kg of mouse body weight while vehicle control (water) was given at similar volumes (approximately 300 μl volumes of water or 1 mg/ml Doxorubicin solution). The next day, mice were infected with 1×10^9 CFU of Salmonella (either single strain of competitive infections, as described above) or 1×10^9 CFU of E. coli. Tissues were harvested at day 1 post-infection and weight loss, total Salmonella burden, and competitive indices were calculated as above. Total Enterobacteriaceae burden, including E. coli, was assessed by plating tissue lysates on MacConkey agar without antibiotics. Uninfected controls were given 1× PBS via oral gavage instead of bacteria, and Endogenous Enterobacteriaceae burden was assessed by plating tissue lysates on MacConkey agar without antibiotics."}, "E. coli": {"tested_on": "E. coli", "assay": "E. coli infection after doxorubicin treatment in mice", "type": "in vivo", "conditions": "C57BL/6 mice; data not shown", "method": "as §3"}, "[6]": {"assay": "Doxorubicin-induced gastrointestinal toxicity in mice", "type": "in vivo", "method": "as §3"}, "Salmonella [7]": {"tested_on": "Salmonella", "assay": "Salmonella gene expression (qPCR) in mammalian cell supernatants", "type": "cell-based, Salmonella enterica serovar Typhimurium", "conditions": "apoptotic supernatants from CT26 and HCT116 cells", "method": "For all gene expression studies, bacterial cultures were grown to mid logarithmic growth phase (OD600=0.4−0.6), spun down at max speed, and then resuspended in TRIzol™ reagent (ThermoFisher) for immediate extraction or frozen at −80° C. Bacterial RNA was extracted and DNA removed as described using the RiboPure RNA Purification Kit (Thermo Fisher). For RNAseq experiments, ribosomal RNA was removed using Ribo-zero kits (Illumina). For all RNAseq data, sample groups were analyzed in quadruplicates and reads were mapped to the Salmonella Typhimurium SL1344 reference genome (ASM21085v2, EnsEMBL 39).\nqPCR: cDNA synthesis was performed using the SensiFast cDNA synthesis kit (GC Biotech). qPCR primers were designed using NCBI Primer Blast. The ΔΔCT values for each independent biological replicate were calculated twice, first using the Salmonella housekeeping gene gmk^55 and then the housekeeping gene strB^56 and the two ΔΔCT values were averaged. Relative fold expression was calculated such that the average of the indicated controls was equal to 1. The endogenous controls for HS E. coli samples were gmk and rpoA^57. All independent experiment values shown are the average values of technical duplicates."}, "CT26 cells": {"tested_on": "CT26 cells", "assay": "Pyruvate concentration in CT26 supernatants", "type": "cell-based, murine", "conditions": "CT26 cells triggered with staurosporine", "method": "Shikonin: CT26 cells were pretreated with 5 μM Shikonin (or DMSO vehicle control) for 1 hour. Cells were then washed once with PBS before replacing with fresh media containing the indicated trigger of cell death +/−5 μM Shikonin.\nMetabolite detection: Pyruvate, formate, or fructose 1,6-bisphosphate concentrations were determined using the appropriate detection kit per the manufacturer's instructions. For these experiments, mammalian cells were cultured in DMEM without phenol red supplemented with 10% FBS."}, "[8]": {"conditions": "single ip 15 mg/kg, followed by oral infection"}, "[9]": {"conditions": "uninfected mice, 2 days post-treatment"}}, "data": [{"compound": "C=CCc1cccc(/C=N/NC(=O)CN2CCN(Cc3ccccc3)CC2)c1O", "note": "[Pac-1]", "values": [{"measurement": "bacterial growth in supernatants from treated CT26 cells", "setting": "Salmonella [1]; 50 μM Pac-1 24 hours, OD600", "result": "enhanced bacterial growth"}]}, {"compound": "CCCN(CCC)S(=O)(=O)c1ccc(C(=O)O)cc1", "note": "[Probenecid]", "values": [{"measurement": "membrane pannexin-1 channel inhibition", "setting": "[2]", "result": "membrane pannexin-1 channel inhibitor"}]}, {"compound": "CC(C)[C@H](NC(=O)c1ccc2ccccc2n1)C(=O)N[C@@H](CC(=O)O)C(=O)COc1c(F)cccc1F", "note": "[QVD]", "values": [{"measurement": "Salmonella growth in CT26:FADD supernatants with caspase inhibition", "setting": "Salmonella [1]; CT26:FADD cells treated with QVD, 8 hours aerobic growth", "result": "reduced Salmonella growth back to media and live cell supernatant controls"}, {"measurement": "Salmonella growth in dying colonocyte supernatant with caspase inhibition", "setting": "Salmonella [3]; colonic explants treated with QVD and Stauro together, 30 μM QVD", "result": "restricted Salmonella growth to live supernatant control levels"}, {"measurement": "cell death", "setting": "CT26:FADD cells; 30 μM QVD, 5 hours post-death induction with B/B dimerizer", "result": "reduced cell death"}, {"measurement": "apoptotic caspase activation", "setting": "CT26:FADD cells; QVD, data not shown", "result": "reduced"}]}, {"compound": "C[C@H](Cn1cnc2c(N)ncnc21)OCP(=O)(O)O", "note": "[Tenofovir]", "values": [{"measurement": "membrane pannexin-1 channel inhibition", "setting": "[2]", "result": "inhibit membrane pannexin-1 channels"}]}, {"compound": "N[C@@H]1[C@H]2CN(c3nc4c(cc3F)c(=O)c(C(=O)O)cn4-c3ccc(F)cc3F)C[C@@H]12", "note": "[Trovafloxacin]", "values": [{"measurement": "membrane pannexin-1 channel inhibition", "setting": "[2]", "result": "membrane pannexin-1 channel inhibitor"}]}, {"compound": "COc1cccc2c1C(=O)c1c(O)c3c(c(O)c1C2=O)C[C@@](O)(C(=O)CO)C[C@@H]3O[C@H]1C[C@H](N)[C@H](O)[C@H](C)O1", "note": "[doxorubicin]", "values": [{"measurement": "direct action on bacterial growth (CFU)", "setting": "Enterobacteriaceae", "result": "direct antimicrobial action"}, {"measurement": "bacterial burden following infection with Salmonella", "setting": "Salmonella [4]; C57BL/6 mice", "result": "staggering increases in bacterial burden"}, {"measurement": "WT Salmonella compared to ΔpflB mutant (competitive index)", "setting": "Salmonella [4]; control mice after doxorubicin treatment", "result": "significantly enriched"}, {"measurement": "Salmonella outgrowth in supernatants of treated colonic explants", "setting": "Salmonella [3]; 20 μg/ml Doxo ex vivo, 9 hours aerobic growth", "result": "directly enhanced Salmonella outgrowth"}, {"measurement": "caspase-3 activation", "setting": "C57BL/6 colonic explants", "result": "induced caspase-3 activation"}, {"measurement": "endogenous Enterobacteriaceae CFU", "setting": "[5]", "result": "potent expansion of the endogenous Enterobacteriaceae"}, {"measurement": "bacterial burden following infection with E. coli", "setting": "E. coli", "result": "staggering increases in bacterial burden"}, {"measurement": "cecal weight", "setting": "[6]; [8]", "result": "significant reduction in cecal weight"}, {"measurement": "colon length", "setting": "[6]; [8]", "result": "shortening of the colon"}, {"measurement": "caspase-3 activation in the ilea", "setting": "[6]; [9]", "result": "caspase-3 activation in the ilea"}, {"measurement": "damage to ceca and colons", "setting": "[6]; [9]", "result": "sufficient to induce damage to the ceca and colons"}]}, {"compound": "CC(=O)S[C@@H]1CC2=CC(=O)CC[C@]2(C)[C@H]2CC[C@@]3(C)[C@@H](CC[C@@]34CCC(=O)O4)[C@H]12", "note": "[spironolactone, Spironolactone]", "values": [{"measurement": "membrane pannexin-1 channel inhibition", "setting": "[2]", "result": "membrane pannexin-I channel inhibitor"}]}, {"compound": "CN[C@@H]1C[C@H]2O[C@@](C)([C@@H]1OC)n1c3ccccc3c3c4c(c5c6ccccc6n2c5c31)C(=O)NC4", "note": "[staurosporine, Staurosporine]", "values": [{"measurement": "Salmonella growth in supernatants of apoptotic CT26 cells compared to control treatments", "setting": "Salmonella [1]; 1 μM staurosporine 24 hours, 9 hours aerobic growth", "result": "strongly induced Salmonella growth"}, {"measurement": "Salmonella cadB expression", "setting": "Salmonella [7]", "result": "significantly increased the expression"}, {"measurement": "Salmonella pflB expression", "setting": "Salmonella [7]", "result": "significantly increased the expression"}, {"measurement": "Salmonella growth in apoptotic supernatants compared to live (vehicle-treated) colonocyte supernatants", "setting": "Salmonella [3]; C57BL/6 colonic explants, 2 μM Stauro 8 hours ex vivo, CFU after 9 hours aerobic growth", "result": "~10", "unit": "fold"}, {"measurement": "pyruvate released compared to live cell supernatants or fresh media controls", "setting": "CT26 cells", "result": "significantly higher levels of pyruvate"}]}]}
